Experimental data as given in PubChem BioAssay AID2060626 (Molecular Pharmacology Branch, DTP, NCI, 2025).
Several values for one entry are separate records, joined by “and”; a condition that tells them apart may be missing. Equal values may be shown once.

Tested on: 168753-222-R-J1-PDC complex spheroid viability
Test: Anticancer human tumor 168753-222-R-J1-PDC patient-derived bladder carcinoma cell line growth inhibition [CLK]
Conditions: for IC50: curve of first compound; for viability, T/C: stronger effect = lower value
How it was run: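 Patient-derived tumor cells grown as complex spheroids with HUVEC endothelial cells and mesenchymal stem cells, treated with drug combinations. Concentrations descend in half-log steps from near clinical Cmax, or from 10 microM if Cmax unknown.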
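Also: viability measured after seven days of drug exposure.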
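For viability, T/C in this document: luminescence signal used as surrogate for viable cell amount; 100% = DMSO vehicle control wells.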

Compound: CCN1CCN(Cc2ccc(Nc3ncc(F)c(-c4cc(F)c5nc(C)n(C(C)C)c5c4)n3)nc2)CC1 + CN1CCN(c2cc(C(=O)Nc3cc4cc(-c5cnn(C)c5)ccc4cn3)ccn2)CC1
- IC50 (second compound 0.0316 µM): 8.23 nM
- IC50 (second compound 0.1 µM): 7.04 nM
- IC50 (second compound 0.316 µM): < 3.16 nM
- IC50 (second compound 1 µM): < 3.16 nM
- IC50 (second compound 3.16 µM): < 3.16 nM
- IC50 (second compound 10 µM): < 3.16 nM
- viability, T/C (second compound 0.0316 µM, first compound 0.00316 µM): 76.3%
- viability, T/C (second compound 0.0316 µM, first compound 0.01 µM): 44.8%
- viability, T/C (second compound 0.0316 µM, first compound 0.0316 µM): 29.6%
- viability, T/C (second compound 0.0316 µM, first compound 0.1 µM): 36.7%
- viability, T/C (second compound 0.0316 µM, first compound 0.316 µM): 22.4%
- viability, T/C (second compound 0.0316 µM, first compound 1 µM): 26.2%
- viability, T/C (second compound 0.1 µM, first compound 0.00316 µM): 76.5%
- viability, T/C (second compound 0.1 µM, first compound 0.01 µM): 38.7%
- viability, T/C (second compound 0.1 µM, first compound 0.0316 µM): 20.5%
- viability, T/C (second compound 0.1 µM, first compound 0.1 µM): 19.9%
- viability, T/C (second compound 0.1 µM, first compound 0.316 µM): 17.4%
- viability, T/C (second compound 0.1 µM, first compound 1 µM): 12.6%
- viability, T/C (second compound 0.316 µM, first compound 0.00316 µM): 11.4%
- viability, T/C (second compound 0.316 µM, first compound 0.01 µM): 9.45%
- viability, T/C (second compound 0.316 µM, first compound 0.0316 µM): 8.81%
- viability, T/C (second compound 0.316 µM, first compound 0.1 µM): 8.47%
- viability, T/C (second compound 0.316 µM, first compound 0.316 µM): 10.7%
- viability, T/C (second compound 0.316 µM, first compound 1 µM): 12.1%
- viability, T/C (second compound 1 µM, first compound 0.00316 µM): 0.18%
- viability, T/C (second compound 1 µM, first compound 0.01 µM): 0.21%
- viability, T/C (second compound 1 µM, first compound 0.0316 µM): 1.13%
- viability, T/C (second compound 1 µM, first compound 0.1 µM): 0.13%
- viability, T/C (second compound 1 µM, first compound 0.316 µM): 1.24%
- viability, T/C (second compound 1 µM, first compound 1 µM): 0.34%
- viability, T/C (second compound 3.16 µM, first compound 0.00316 µM): 0.09%
- viability, T/C (second compound 3.16 µM, first compound 0.01 µM): 0.13%
- viability, T/C (second compound 3.16 µM, first compound 0.0316 µM): 0.44%
- viability, T/C (second compound 3.16 µM, first compound 0.1 µM): 0.08%
- viability, T/C (second compound 3.16 µM, first compound 0.316 µM): 1.18%
- viability, T/C (second compound 3.16 µM, first compound 1 µM): 0.99%
- viability, T/C (second compound 10 µM, first compound 0.00316 µM): 0.11%
- viability, T/C (second compound 10 µM, first compound 0.01 µM): 0.29%
- viability, T/C (second compound 10 µM, first compound 0.0316 µM): 0.24%
- viability, T/C (second compound 10 µM, first compound 0.1 µM): 0.13%
- viability, T/C (second compound 10 µM, first compound 0.316 µM): 1.1%
- viability, T/C (second compound 10 µM, first compound 1 µM): 1.36%

Compound: C=CC(=O)Nc1cc(Nc2nccc(-c3cn(C)c4ccccc34)n2)c(OC)cc1N(C)CCN(C)C + CN1CCN(c2cc(C(=O)Nc3cc4cc(-c5cnn(C)c5)ccc4cn3)ccn2)CC1
- IC50 (second compound 0.0316 µM): > 300 nM
- IC50 (second compound 0.1 µM): 58.9 nM
- IC50 (second compound 0.316 µM): < 0.949 nM
- IC50 (second compound 1 µM): < 0.949 nM
- IC50 (second compound 3.16 µM): < 0.949 nM
- IC50 (second compound 10 µM): < 0.949 nM
- viability, T/C (second compound 0.0316 µM, first compound 0.000949 µM): 117%
- viability, T/C (second compound 0.0316 µM, first compound 0.003 µM): 113%
- viability, T/C (second compound 0.0316 µM, first compound 0.00949 µM): 105%
- viability, T/C (second compound 0.0316 µM, first compound 0.03 µM): 114%
- viability, T/C (second compound 0.0316 µM, first compound 0.0949 µM): 103%
- viability, T/C (second compound 0.0316 µM, first compound 0.3 µM): 108%
- viability, T/C (second compound 0.1 µM, first compound 0.000949 µM): 65.7%
- viability, T/C (second compound 0.1 µM, first compound 0.003 µM): 71.8%
- viability, T/C (second compound 0.1 µM, first compound 0.00949 µM): 53.4%
- viability, T/C (second compound 0.1 µM, first compound 0.03 µM): 77%
- viability, T/C (second compound 0.1 µM, first compound 0.0949 µM): 21.2%
- viability, T/C (second compound 0.1 µM, first compound 0.3 µM): 54.9%
- viability, T/C (second compound 0.316 µM, first compound 0.000949 µM): 10.4%
- viability, T/C (second compound 0.316 µM, first compound 0.003 µM): 8.73%
- viability, T/C (second compound 0.316 µM, first compound 0.00949 µM): 9.29%
- viability, T/C (second compound 0.316 µM, first compound 0.03 µM): 6.59%
- viability, T/C (second compound 0.316 µM, first compound 0.0949 µM): 5.77%
- viability, T/C (second compound 0.316 µM, first compound 0.3 µM): 1.61%
- viability, T/C (second compound 1 µM, first compound 0.000949 µM): 0.14%
- viability, T/C (second compound 1 µM, first compound 0.003 µM): 0.17%
- viability, T/C (second compound 1 µM, first compound 0.00949 µM): 0.15%
- viability, T/C (second compound 1 µM, first compound 0.03 µM): 0.32%
- viability, T/C (second compound 1 µM, first compound 0.0949 µM): 0.13%
- viability, T/C (second compound 1 µM, first compound 0.3 µM): 0.91%
- viability, T/C (second compound 3.16 µM, first compound 0.000949 µM): 0.1%
- viability, T/C (second compound 3.16 µM, first compound 0.003 µM): 0.13%
- viability, T/C (second compound 3.16 µM, first compound 0.00949 µM): 0.21%
- viability, T/C (second compound 3.16 µM, first compound 0.03 µM): 0.09%
- viability, T/C (second compound 3.16 µM, first compound 0.0949 µM): 0.17%
- viability, T/C (second compound 3.16 µM, first compound 0.3 µM): 2.63%
- viability, T/C (second compound 10 µM, first compound 0.000949 µM): 0.15%
- viability, T/C (second compound 10 µM, first compound 0.003 µM): 0.28%
- viability, T/C (second compound 10 µM, first compound 0.00949 µM): 0.5%
- viability, T/C (second compound 10 µM, first compound 0.03 µM): 0.15%
- viability, T/C (second compound 10 µM, first compound 0.0949 µM): 0.27%
- viability, T/C (second compound 10 µM, first compound 0.3 µM): 0.37%

Compound: NC(=O)C(=Cn1cnc(-c2cc(C(F)(F)F)cc(C(F)(F)F)c2)n1)c1cncnc1
- viability, T/C (compound 0.00949 µM): 102% and 101%
- viability, T/C (compound 0.03 µM): 76% and 95.7%
- viability, T/C (compound 0.0949 µM): 52.8% and 83.2%
- viability, T/C (compound 0.3 µM): 48.1% and 84.1%
- viability, T/C (compound 0.949 µM): 41.1% and 68.7%
- viability, T/C (compound 3 µM): 26.5% and 52%
